Assay results published in ChEMBL document CHEMBL1201862, “PubChem BioAssay data set” (2004).
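Grown in 96-well plates, cells were treated for 48 hours with each compound at five concentrations. Insufficient inhibition: endpoint recorded as highest concentration tested. At the GI50, growth is halved.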 Calls of active or inactive are those of the source. Cut-off read from the data, not from the text of the source: active = GI50 up to about 1.1 µM and inactive = higher.

Key:
Assay in all cases: NCI-60 cell line screen, 48 h
OVCAR-4 = tested on: OVCAR-4
SW-620 = tested on: SW-620
SNB-19 = tested on: SNB-19
NCI-H460 = tested on: NCI-H460
SF-268 = tested on: SF-268
M14 = tested on: M14
RPMI-8226 = tested on: RPMI-8226
RXF 393 = tested on: RXF 393
IGROV-1 = tested on: IGROV-1
SK-MEL-2 = tested on: SK-MEL-2
HT-29 = tested on: HT-29
SF-295 = tested on: SF-295
KM12 = tested on: KM12
U-251 = tested on: U-251
SN12C = tested on: SN12C
UACC-257 = tested on: UACC-257
HOP-62 = tested on: HOP-62
MDA-MB-231 = tested on: MDA-MB-231
T47D = tested on: T47D

| SMILES | GI50 (OVCAR-4) | GI50 (SW-620) | GI50 (SNB-19) | GI50 (NCI-H460) | GI50 (SF-268) | GI50 (M14) | GI50 (RPMI-8226) | GI50 (RXF 393) | GI50 (IGROV-1) | GI50 (SK-MEL-2) | GI50 (HT-29) | GI50 (SF-295) | GI50 (KM12) | GI50 (U-251) | GI50 (SN12C) | GI50 (UACC-257) | GI50 (HOP-62) | GI50 (MDA-MB-231) | GI50 (T47D) |
| --- | --- | --- | --- | --- | --- | --- | --- | --- | --- | --- | --- | --- | --- | --- | --- | --- | --- | --- | --- |
| O=C(CC1(O)C(=O)Nc2ccc([N+](=O)[O-])cc21)c1ccc2ccccc2c1 (centres undefined) | > 100 µM (inactive) | > 100 µM (inactive) | > 100 µM (inactive) | > 100 µM (inactive) | > 100 µM (inactive) | > 100 µM (inactive) | > 100 µM (inactive) | > 100 µM (inactive) | > 100 µM (inactive) | > 100 µM (inactive) | > 100 µM (inactive) | > 100 µM (inactive) | > 100 µM (inactive) | > 100 µM (inactive) | > 100 µM (inactive) | > 100 µM (inactive) | > 100 µM (inactive) |  |  |
| OC1=CN=C(C2CC2)Oc2ccccc21 | 85.3 µM (inactive) | > 100 µM (inactive) | > 100 µM (inactive) | > 100 µM (inactive) | > 100 µM (inactive) | > 100 µM (inactive) | > 100 µM (inactive) | > 100 µM (inactive) | > 100 µM (inactive) | > 100 µM (inactive) | > 100 µM (inactive) | 83.2 µM (inactive) | > 100 µM (inactive) | > 100 µM (inactive) | > 100 µM (inactive) | > 100 µM (inactive) | > 100 µM (inactive) |  |  |
| C/C(CCn1[nH]c(=O)ccc1=O)=N\OCCCc1ccccc1 | > 100 µM (inactive) | > 100 µM (inactive) | > 100 µM (inactive) | > 100 µM (inactive) | > 100 µM (inactive) | > 100 µM (inactive) | > 100 µM (inactive) | > 100 µM (inactive) | > 100 µM (inactive) | > 100 µM (inactive) | > 100 µM (inactive) | > 100 µM (inactive) | > 100 µM (inactive) |  | > 100 µM (inactive) | > 100 µM (inactive) | > 100 µM (inactive) |  |  |
| CC(=O)C1=C(O)C(N)C2Cc3c(c(O)c4c(O)c(C)ccc4c3C)C(=O)C2(O)C1=O (centres undefined) | 5.61 µM (inactive) | 2.79 µM (inactive) | 2.34 µM (inactive) | 1.3 µM (inactive) | 1.18 µM (inactive) | 2.47 µM (inactive) | 1.27 µM (inactive) | 4.43 µM (inactive) | 2.96 µM (inactive) | 3.56 µM (inactive) | 2.23 µM (inactive) | 1.26 µM (inactive) | 1.9 µM (inactive) | 0.885 µM (active) | 1.37 µM (inactive) | 2.48 µM (inactive) | 1.58 µM (inactive) |  |  |
| CS/C(=N\S(=O)(=O)c1ccc(Cl)cc1)NCCCCN/C(=N/S(=O)(=O)c1ccc(Cl)cc1)SC | > 100 µM (inactive) | > 100 µM (inactive) | > 100 µM (inactive) | > 100 µM (inactive) | 32.5 µM (inactive) | > 100 µM (inactive) | > 100 µM (inactive) |  | 83 µM (inactive) | > 100 µM (inactive) | > 100 µM (inactive) | > 100 µM (inactive) |  | 69.5 µM (inactive) | > 100 µM (inactive) | > 100 µM (inactive) | > 100 µM (inactive) | > 100 µM (inactive) | > 100 µM (inactive) |
| O=S(=O)(O)c1ccc([Se][Se]c2ccc(S(=O)(=O)O)cc2)cc1 | > 100 µM (inactive) | > 100 µM (inactive) | > 100 µM (inactive) | > 100 µM (inactive) | > 100 µM (inactive) | > 100 µM (inactive) | 72.4 µM (inactive) | > 100 µM (inactive) | > 100 µM (inactive) | > 100 µM (inactive) | > 100 µM (inactive) | > 100 µM (inactive) | > 100 µM (inactive) | > 100 µM (inactive) | > 100 µM (inactive) | > 100 µM (inactive) | > 100 µM (inactive) |  |  |
| COC(=O)C1=CC(O)CCC1c1ccc(OC)cc1 (centres undefined) | > 100 µM (inactive) | > 100 µM (inactive) | > 100 µM (inactive) | > 100 µM (inactive) | > 100 µM (inactive) | > 100 µM (inactive) | > 100 µM (inactive) | > 100 µM (inactive) | > 100 µM (inactive) | > 100 µM (inactive) | > 100 µM (inactive) | > 100 µM (inactive) | > 100 µM (inactive) | > 100 µM (inactive) | > 100 µM (inactive) | > 100 µM (inactive) | > 100 µM (inactive) |  |  |
| O=[N+]([O-])c1nccn1CC(O)CN1CC1 (centres undefined) | 74.5 µM (inactive) | 63.8 µM (inactive) | > 100 µM (inactive) | 27.6 µM (inactive) | 91.6 µM (inactive) | > 100 µM (inactive) | 49.4 µM (inactive) | 25.5 µM (inactive) | 71.3 µM (inactive) | 41.6 µM (inactive) | 56.6 µM (inactive) | > 100 µM (inactive) | 66.8 µM (inactive) | 35.6 µM (inactive) | 61.8 µM (inactive) | 83.9 µM (inactive) | 74.3 µM (inactive) |  |  |
| CN(C)CC(C)(C)C(/C=C/c1ccccc1)=N\Nc1ccccc1 | 1.06 µM (active) | 0.375 µM (active) | 3.23 µM (inactive) | 0.659 µM (active) | 0.172 µM (active) | 5.01 µM (inactive) | 1.68 µM (inactive) | 18 µM (inactive) | 0.723 µM (active) | 3.6 µM (inactive) | 11 µM (inactive) | 0.131 µM (active) | 0.579 µM (active) | 0.306 µM (active) | 1.71 µM (inactive) | 10.3 µM (inactive) | 2.77 µM (inactive) |  |  |
| O=C([O-])C(O)C(O)C(O)C(O)C(=O)O.[K+] (centres undefined) | > 100 µM (inactive) | > 100 µM (inactive) | > 100 µM (inactive) | > 100 µM (inactive) | > 100 µM (inactive) | > 100 µM (inactive) |  | > 100 µM (inactive) | > 100 µM (inactive) | > 100 µM (inactive) | > 100 µM (inactive) | > 100 µM (inactive) | > 100 µM (inactive) | > 100 µM (inactive) | > 100 µM (inactive) | > 100 µM (inactive) | > 100 µM (inactive) | > 100 µM (inactive) | > 100 µM (inactive) |
| CC1OC(=O)N2CCC=CC12 (centres undefined) | > 100 µM (inactive) | > 100 µM (inactive) | > 100 µM (inactive) | > 100 µM (inactive) | > 100 µM (inactive) |  | > 100 µM (inactive) | > 100 µM (inactive) | > 100 µM (inactive) | > 100 µM (inactive) | > 100 µM (inactive) | > 100 µM (inactive) | > 100 µM (inactive) | > 100 µM (inactive) | > 100 µM (inactive) | > 100 µM (inactive) |  |  |  |
| CCOC(=O)/C=C1\Nc2ccccc2-n2nnnc21 | > 100 µM (inactive) | 23.7 µM (inactive) | > 100 µM (inactive) | > 100 µM (inactive) | > 100 µM (inactive) | > 100 µM (inactive) | 64.9 µM (inactive) | > 100 µM (inactive) | > 100 µM (inactive) | > 100 µM (inactive) | 95.5 µM (inactive) | > 100 µM (inactive) | > 100 µM (inactive) | 22.1 µM (inactive) | > 100 µM (inactive) | > 100 µM (inactive) | > 100 µM (inactive) |  |  |
| O=C(/C=N/O)Nc1ccc(Cl)c(I)c1 | 28.6 µM (inactive) | 34.4 µM (inactive) | 23.9 µM (inactive) | 21.6 µM (inactive) | 19.2 µM (inactive) | 18.6 µM (inactive) | 20 µM (inactive) | 16.8 µM (inactive) | 8.61 µM (inactive) | 15.7 µM (inactive) | 33.3 µM (inactive) | 29.5 µM (inactive) | 20.6 µM (inactive) | 16.1 µM (inactive) | 22.5 µM (inactive) | 28.6 µM (inactive) | 23.1 µM (inactive) |  |  |
| O=C1NC(=O)C2C(=O)NC(=O)C1C2Cc1ccco1 (centres undefined) | > 100 µM (inactive) | > 100 µM (inactive) | > 100 µM (inactive) | > 100 µM (inactive) | > 100 µM (inactive) | > 100 µM (inactive) | > 100 µM (inactive) | > 100 µM (inactive) | > 100 µM (inactive) | > 100 µM (inactive) | > 100 µM (inactive) | > 100 µM (inactive) | > 100 µM (inactive) |  | > 100 µM (inactive) | > 100 µM (inactive) |  |  |  |
| CCOC(=O)C1=C(C)C2C3C(=O)OC(=O)C3C1(C)C1C(=O)OC(=O)C21 (centres undefined) | > 100 µM (inactive) | > 100 µM (inactive) | > 100 µM (inactive) | > 100 µM (inactive) | > 100 µM (inactive) | > 100 µM (inactive) | > 100 µM (inactive) | > 100 µM (inactive) | > 100 µM (inactive) | > 100 µM (inactive) | > 100 µM (inactive) | > 100 µM (inactive) | > 100 µM (inactive) | > 100 µM (inactive) | > 100 µM (inactive) | > 100 µM (inactive) | > 100 µM (inactive) |  |  |
| C=CCC1(Sc2ccccn2)Sc2ccc3ccccc3c2-c2c(ccc3ccccc23)S1 | > 100 µM (inactive) | > 100 µM (inactive) | > 100 µM (inactive) | > 100 µM (inactive) | > 100 µM (inactive) | > 100 µM (inactive) |  | > 100 µM (inactive) | > 100 µM (inactive) | > 100 µM (inactive) | > 100 µM (inactive) | > 100 µM (inactive) | > 100 µM (inactive) | > 100 µM (inactive) | > 100 µM (inactive) | > 100 µM (inactive) | > 100 µM (inactive) | > 100 µM (inactive) | > 100 µM (inactive) |
